# In patent US10259811B2, “Tank-binding kinase inhibitor compounds” (Gilead Sciences, Inc., priority 2014, dated 2019):
# Experiments:
# IKKε = IKKε (Homo sapiens (Human), UniProt Q14164); experiment: TR-FRET enzymatic assay, phosphorylation of biotinylated serine/threonine peptide substrate (IKKε); format: biochemical; settings: full length recombinant IKKε at 0.3 nM, 2×Km ATP (40-80 μM), 1 μM peptide, 240 minutes at 25° C.; geometric mean of minimum four determinations
# Excerpt: Biological Assay for TBK1 and IKKε:
# TBK1 = TBK1 (Homo sapiens (Human), UniProt Q9UHD2); experiment: TR-FRET enzymatic assay, phosphorylation of biotinylated serine/threonine peptide substrate (TBK1); settings: read-out: TBK1-IC50; full length recombinant TBK1, 2×Km ATP (40-80 μM), 1 μM peptide, 240 minutes at 25° C.; geometric mean of minimum four determinations
# Chain of TBK1 (Q9UHD2 whole entry): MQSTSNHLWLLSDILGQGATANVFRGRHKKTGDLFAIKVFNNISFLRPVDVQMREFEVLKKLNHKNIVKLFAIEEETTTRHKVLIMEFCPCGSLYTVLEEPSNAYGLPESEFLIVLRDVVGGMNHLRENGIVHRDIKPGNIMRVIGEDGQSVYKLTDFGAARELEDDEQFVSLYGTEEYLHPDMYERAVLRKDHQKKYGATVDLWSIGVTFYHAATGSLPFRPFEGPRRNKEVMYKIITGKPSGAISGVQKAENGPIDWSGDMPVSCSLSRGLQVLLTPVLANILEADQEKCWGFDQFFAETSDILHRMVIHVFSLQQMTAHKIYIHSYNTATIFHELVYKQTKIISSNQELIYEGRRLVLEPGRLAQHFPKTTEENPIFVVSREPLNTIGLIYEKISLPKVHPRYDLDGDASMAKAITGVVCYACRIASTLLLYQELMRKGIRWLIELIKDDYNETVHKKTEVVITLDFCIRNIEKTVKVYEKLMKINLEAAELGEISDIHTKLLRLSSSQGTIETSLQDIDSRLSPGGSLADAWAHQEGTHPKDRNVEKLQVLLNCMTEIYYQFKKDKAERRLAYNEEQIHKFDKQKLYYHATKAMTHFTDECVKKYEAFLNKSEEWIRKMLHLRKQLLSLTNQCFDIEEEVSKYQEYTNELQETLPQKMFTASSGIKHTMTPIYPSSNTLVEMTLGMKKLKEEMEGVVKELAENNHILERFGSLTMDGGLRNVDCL
# Protocol: Enzymatic activity of IKKε and TBK1 was measured using a homogeneous time resolved fluorescence resonance energy transfer (TR-FRET) assay that monitors enzyme dependent phosphorylation of a biotinylated serine/threonine peptide substrate. […] TBK1 and IKKε were expressed and purified as full length recombinant proteins. Detection reagents for the assay were purchased from Cisbio. […] After an assay reaction time of 240 minutes at 25° C., reactions were terminated with EDTA.
# Amount of phosphorylated peptide was determined by the addition of 125 nM streptavidin XL665 and europium cryptate labeled anti-phospho monoclonal antibody and the resulting TR-FRET signal was recorded on an Envision plate reader (Ex: 340 nm; Em: 615/665 nm; 100 μs delay and 200 μs read window). […] All IC50 values represent geometric mean values of a minimum of four determinations.
# Chain of IKKε (Q14164 whole entry): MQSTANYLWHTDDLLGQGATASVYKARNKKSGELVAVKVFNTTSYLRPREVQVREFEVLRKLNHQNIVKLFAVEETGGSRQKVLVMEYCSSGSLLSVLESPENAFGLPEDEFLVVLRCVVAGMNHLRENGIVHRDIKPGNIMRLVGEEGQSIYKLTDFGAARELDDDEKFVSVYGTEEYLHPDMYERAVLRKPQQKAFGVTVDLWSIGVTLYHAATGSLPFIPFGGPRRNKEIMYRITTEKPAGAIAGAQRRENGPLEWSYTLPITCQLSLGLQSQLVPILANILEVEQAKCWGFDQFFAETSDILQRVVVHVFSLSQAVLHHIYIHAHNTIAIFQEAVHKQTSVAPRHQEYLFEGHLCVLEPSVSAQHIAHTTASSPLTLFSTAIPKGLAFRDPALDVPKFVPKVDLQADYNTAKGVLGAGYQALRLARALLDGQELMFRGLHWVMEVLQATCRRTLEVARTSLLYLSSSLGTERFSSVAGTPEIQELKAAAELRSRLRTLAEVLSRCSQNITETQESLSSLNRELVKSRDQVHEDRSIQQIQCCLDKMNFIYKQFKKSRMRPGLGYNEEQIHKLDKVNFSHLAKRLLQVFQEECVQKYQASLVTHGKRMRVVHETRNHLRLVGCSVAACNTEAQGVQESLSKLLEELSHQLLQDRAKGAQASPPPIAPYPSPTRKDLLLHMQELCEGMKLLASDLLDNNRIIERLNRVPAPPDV
Compound,IC50 (IKKε),IC50 (TBK1)
"5-(6-(1,4-dioxaspiro[4.5]dec-7-en-8-yl)-7H-pyrrolo[2,3-d]pyrimidin-4-yl)-2-((1-(2-hydroxyacetyl)piperidin-4-yl)oxy)benzonitrile [Example 175]",5.84 nM,
"5-(6-(4-(4-(2,2-difluoroethyl)piperazin-1-yl)phenyl)-7H-pyrrolo[2,3-d]pyrimidin-4-yl)-2-((1-(2-hydroxyacetyl)piperidin-4-yl)oxy)benzonitrile [Example 264]",,0.91 nM
"5-(6-(4-(4-(2,2-difluoroethyl)piperazin-1-yl)phenyl)-7H-pyrrolo[2,3-d]pyrimidin-4-yl)-2-(piperidin-4-yloxy)benzonitrile [Example 265]",58.7 nM,16.2 nM
"Cc1nc(-c2ccc(OC3CCOCC3)c(C#N)c2)c2nc(-c3ccc(N4CCOCC4)cc3)[nH]c2n1 [Example 214, 5-(2-methyl-8-(4-morpholinophenyl)-9H-purin-6-yl)-2-((tetrahydro-2H-pyran-4-yl)oxy)benzonitrile]",> 1000 nM,> 1000 nM
"N#Cc1cc(-c2ncnc3[nH]c(-c4ccc(N5CCOCC5)c(F)c4)nc23)ccc1OC1CCN(C(=O)CO)CC1 [Example 241, 5-(8-(3-fluoro-4-morpholinophenyl)-9H-purin-6-yl)-2-((1-(2-hydroxyacetyl)piperidin-4-yl)oxy)benzonitrile]",1.3 nM,2.64 nM
